Test results: patent publication US4063025A, “4-Substituted amino-α-aminomethylbenzyl alcohol derivatives” (Yamanouchi Pharmaceutical Co., Ltd., priority 1975, dated 1977)
Structures can show the parent of a compound that is named as a salt. Where two headings read alike, the source gives them in different places.

Experiments:
guinea pig = assay: Anti asthmatic activity: protection from histamine-induced asthmatic dyspnea, subcutaneous (Parker et al.); assay type: in vivo; details: Cavia porcellus, sc, 0.5 h, read-out: anti-asthmatic activity ED50
Experimental: The experiments were carried out according to the method of Parker et al., (J. Pharmacol. Exptl. Therap., 118, 359-364 (1956)). A guinea pig was placed in a 11 liters glass chamber and exposed to the spasmogen by means of a nebulizer. […] Samples were administered subcutaneously to animals 30 min. prior the application of the spasmogen.
ED50 was calculated by the method of Litchfield-Wilcoxon (J. Pharmacol. Exptl. Therap., 96, 99-113 (1949) using 4-8 groups and one group consists of 4-8 of guinea pig.

β2 = molecular target: T1, β2 (Canis lupus familiaris, UniProt P54833); assay: Bronchodilator activity, β2 action: histamine-induced increase in bronchial resistance, intraduodenal (Konzett and Rossler); assay type: in vivo, Mongorel dogs; details: dog, anesthetized dogs, histamine dihydrochloride 10 μg/Kg i.v., peak effect, read-out: β2 action i.d. ED50
T1 construct: from tissue; host or cells: airways of anesthetized mongrel dogs, in vivo
Experimental: a. Bronchodilator activity, B2 action
The experiments were carried out according to the method of Konzett and Rossler (Arch. exp. Path. Pharmakol., 195, 11-14 (1940)). Mongorel dogs were anesthetized with pentobarbital Na. Temporary increase in bronchial resistance, measured with transducer connected to a polygraph, were produced by histamine dihydrochloride, 10 μg/Kg injected rapidly intravenously at intervals of 30 min. The test samples were injected intraduodenally and the time-course of antihistamine activity of the sample (the inhibition rate (%) against the control) was obtained.
ED50 (μg/Kg) values of β-agonists were obtained from the dose response curve drawn according to the peak effect on each dose.

β1 = assay: Action on heart rate, β1 action, intraduodenal; assay type: in vivo, Mongorel dogs
Experimental: b. Action on heartrate, β1 action.
Mongorel dogs were anesthetized with pentobarbital Na. Heart rate (HR) was recorded on polygraph. […] The time-course of ΔHR (the increased HR against the control) was obtained.
The dose response curve drawn according to the peak response on each dose and the ED25 beats/min. (μg/Kg), that is the dose of the sample producing 25 beats/min. increase in heart rate was obtained from the curve.

β1 /β2 = assay: Broncho-selectivity (ratio of β1/β2); assay type: in vivo, Mongorel dogs; details: intraduodenal, anesthetized dogs; from ED25 heart rate and ED50 bronchodilator
From the text: The broncho-selectivity was obtained by the following equation. [formula]

[1] = cited from earlier work
[2] = subcutaneous, 30 min. prior to spasmogen (0.1% histamine dihydrochloride spray), guinea pig

T1 sequence (P54833 whole entry): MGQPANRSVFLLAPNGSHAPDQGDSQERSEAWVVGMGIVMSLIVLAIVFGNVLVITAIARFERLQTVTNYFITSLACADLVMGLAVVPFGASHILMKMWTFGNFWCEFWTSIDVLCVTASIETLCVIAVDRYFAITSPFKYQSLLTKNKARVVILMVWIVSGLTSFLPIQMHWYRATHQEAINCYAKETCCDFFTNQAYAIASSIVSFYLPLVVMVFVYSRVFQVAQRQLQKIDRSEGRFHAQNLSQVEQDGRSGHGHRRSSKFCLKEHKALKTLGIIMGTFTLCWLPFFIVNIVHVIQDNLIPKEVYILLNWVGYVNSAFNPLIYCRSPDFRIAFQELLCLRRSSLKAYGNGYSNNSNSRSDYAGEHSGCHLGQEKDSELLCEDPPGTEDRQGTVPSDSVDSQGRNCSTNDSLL

COCCOC(=O)Nc1c(Cl)cc(C(O)CNC(C)(C)C)cc1Cl (stereo not drawn) [Ex. 14, 3,5-dichloro-4-(2-methoxyethoxy)carbonylamino-α-(tert-butylaminomethyl)benzyl alcohol hydrochloride]
ED50 (guinea pig; [2]): 0.032 mg/kg

CCOC(=O)Nc1c(Cl)cc(C(O)CNC(C)(C)C)cc1Cl.Cl (stereo not drawn) [Ex. 10, 3,5-dichloro-4-ethoxycarbonylamino-α-(tert-butylaminomethyl)-benzyl alcohol hydrochloride]
ED50 (β2): 4.5 µg/kg | β1 action i.d. ED25 beats/min (β1; dog, in vivo): 19.5 µg/kg | broncho-selectivity (Ratio of β1 /β2) (β1 /β2): 4.3

CCNc1c(Cl)cc(C(O)CNC(C)(C)C)cc1Cl.Cl (stereo not drawn) [Ex. 6, 3,5-dichloro-4-ethylamino-α-(tert-butylaminomethyl)-benzyl alcohol mono-hydrochloride]
ED50 (guinea pig): 0.125 to 0.25 mg/kg

CC(C)(C)NCC(O)c1cc(Cl)c(N)c(Cl)c1 (stereo not drawn) [NAB 365, 1-(4-amino-3,5-dichlorophenyl)-2-tert-butylamino ethanol, reference compound]
ED50 (guinea pig): 0.49 mg/kg | ED50 (β2): 12.3 µg/kg | β1 action i.d. ED25 beats/min (β1; intraduodenal, anesthetized dogs, dose producing 25 beats/min. increase in heart rate): 5.7 µg/kg | broncho-selectivity (Ratio of β1 /β2) (β1 /β2): 0.46 | bronchodilator activity by oral administration ([1]; in words): strong bronchodilator activity | bronchodilator activity, times stronger than Isoproterenol ([1]; oral administration, versus Isoproterenol): about 500 times | bronchodilator activity, times stronger than Salbutamol ([1]; oral administration, versus Salbutamol): about 100 times

COC(=O)Nc1c(Cl)cc(C(O)CNC(C)(C)C)cc1Br (stereo not drawn) [Ex. 18, 3-bromo-5-chloro-4-methoxycarbonylamino-α-(tert-butylaminomethyl)-benzyl alcohol 1/2 fumarate]
ED50 (guinea pig; [2]): 0.063 mg/kg

CC(C)(C)NCC(O)c1cc(Cl)c(NC(=O)OCc2ccccc2)c(Cl)c1.Cl (stereo not drawn) [Ex. 13, 3,5-dichloro-4-benzyloxycarbonylamino-α-(tert-butylaminomethyl)benzyl alcohol hydrochloride]
ED50 (guinea pig; [2]): 0.125 mg/kg

COC(=O)Nc1ccc(C(O)CNC(C)(C)C)cc1Cl (stereo not drawn) [Ex. 23, 3-chloro-4-methoxycarbonylamino-α-(N-tert-butylaminomethyl)benzyl alcohol]
ED50 (guinea pig; [2]): 0.063 to 0.125 mg/kg

CNC(=O)Nc1c(Cl)cc(C(O)CNC(C)(C)C)cc1Cl (stereo not drawn) [Ex. 15, 3,5-dichloro-4-methylcarbamoylamino-α-(tert-butylaminomethyl)benzyl alcohol]
ED50 (guinea pig; [2]): 0.125 to 0.25 mg/kg

COC(=O)Nc1c(Br)cc(C(O)CNC(C)(C)C)cc1Br (stereo not drawn) [Ex. 8, 3,5-dibromo-4-methoxycarbonylamino-α-(tert-butylaminomethyl)benzyl alcohol]
ED50 (guinea pig; [2]): 0.125 mg/kg

CC(C)OC(=O)Nc1c(Cl)cc(C(O)CNC(C)(C)C)cc1Cl (stereo not drawn) [Ex. 12, 3,5-dichloro-4-isopropoxycarbonylamino-α-(tert-butylaminomethyl)benzyl alcohol]
ED50 (guinea pig; [2]): 0.032 mg/kg
